Columns and labels:
Format in all cases: in vivo, human
[1] = system: activity of autonomic nerves; assay: Heart rate variability power spectrum after smoking, double blind crossover study; conditions: for level of LF/HF change: 3 soft capsules each containing 10 mg of sesamin, nine male university students
Procedure: For nine male general university students, a test was carried out by a double blind, crossover study. Specifically, 3 soft capsules each containing 10 mg of sesamin and 3 placebo capsules were ingested, and the effect of the ingestion of the capsules on the activity of autonomic nerves was examined by a heart rate variability power spectrum method according to the method by Ue, H. et al. (Ue, H. et al., Ann. Noninvasive Electrocardiol., 5: 336-345 (2000)). After the ingestion of each sample, the students smoked one cigarette over a period of 4 min. Just before and after smoking, 10 min after smoking, and 30 min after smoking, electrocardiograms were taken, and sampling was carried out at 1024 Hz using 14-bit A/D conversion. Heart rate variability obtained from the electrocardiograms were processed by fast Fourier transform for frequency analysis to provide a heart rate variability power spectrum. In order to separate and quantify the heart rate variability spectrum, spectral integral values of two frequency bands (0.04 to 0.15 Hz and 0.15 to 0.4 Hz) are mainly determined. The spectral integral value of the low frequency (0.04 to 0.15 Hz) band was used as a measure of the activity of the sympathetic nerves and the activity of the parasympathetic nerves, while the spectral integral value of the high frequency (0.15 to 0.4 Hz) band was used as a measure of the activity of the parasympathetic nerves. Further, the value obtained by dividing the spectral integral value of the low frequency band by the spectral integral value of the high frequency band, that is, LF/HF, was used as a measure of the balance between the activity of the sympathetic nerves and the activity of the parasympathetic nerves (Akselrod S et al., Science 213: 220-222 (1981) and Moritani T et al., J sportmed Sci. 7: 31-39 (1993)). Further, the heart depolarization-repolarizaton time was measured by the QT interval.

QT interval = QT interval (heart depolarization-repolarization time) after smoking; conditions: FIG. 2; 3 x 10 mg sesamin capsules; placebo group significant prolongation (p<0.01)
Procedure: For nine male general university students, a test was carried out by a double blind, crossover study. Specifically, 3 soft capsules each containing 10 mg of sesamin and 3 placebo capsules were ingested, and the effect of the ingestion of the capsules on the activity of autonomic nerves was examined by a heart rate variability power spectrum method according to the method by Ue, H. et al. (Ue, H. et al., Ann. Noninvasive Electrocardiol., 5: 336-345 (2000)). After the ingestion of each sample, the students smoked one cigarette over a period of 4 min. Just before and after smoking, 10 min after smoking, and 30 min after smoking, electrocardiograms were taken, and sampling was carried out at 1024 Hz using 14-bit A/D conversion. Heart rate variability obtained from the electrocardiograms were processed by fast Fourier transform for frequency analysis to provide a heart rate variability power spectrum. In order to separate and quantify the heart rate variability spectrum, spectral integral values of two frequency bands (0.04 to 0.15 Hz and 0.15 to 0.4 Hz) are mainly determined. […] Further, the heart depolarization-repolarizaton time was measured by the QT interval.

[2] = system: activity of autonomic nerves; assay: Heart rate variability power spectral analysis in women with symptoms of climacteric disorder, double-blind parallel comparison; conditions: 4 weeks, 3 soft capsules each containing 10 mg of sesamin; supine position; FIG. 3
Procedure: For 14 women who display symptoms of climacteric disorder, a test was carried out by double-blind parallel between-groups comparison. The subjects were randomly divided into two groups. Over a period of 4 weeks, 3 soft capsules each containing 10 mg of sesamin were ingested consecutively for one of the groups, and 3 placebo capsules were ingested consecutively for the other group. Before and after the ingestion of the sample, electrocardiograms were taken in a supine position, and the activity of the autonomic nerves was examined by heart rate variability power spectral analysis.

In the case of `c1cc2c(cc1[C@H]1OC[C@H]3[C@@H]1CO[C@@H]3c1ccc3c(c1)OCO3)OCO2` [sesamin], the “level of LF/HF change” value ([1]; 30 min after smoking) is reported as −0.239, the “level of LF/HF change” value ([1]; just after smoking) is reported as “+2.87” and the “lowering in the activity of the parasympathetic nerves caused by smoking” value ([1]; vs placebo, p<0.05, FIG. 1, 3 x 10 mg sesamin capsules) is reported as “significantly inhibited”. The “prolongation of QT interval caused by smoking” value (QT interval) was “no significant prolongation”, the “overall autonomic nerve activity” value [2] was “increased” and the parasympathetic nerve activity [2] was “significantly increased”. The sympathetic nerve activity [2] was “increased”.

From patent publication US20060058376A1, “Composition having autonomic nerve modulating activity and method of use thereof” (SUNTORY LIMITED, priority 2003, published 2006)
